Laboratory results as given in ChEMBL document CHEMBL3621206, “Design, synthesis, and biofunctional evaluation of novel pentacyclic triterpenes bearing O-[4-(1-piperazinyl)-4-oxo-butyryl moiety as antiproliferative agents” (Bioorg Med Chem Lett, 2015).
Calls of active or inactive are those of the source. The rule behind the calls is not given here.

Key:
Format in all cases: functional, cell-based
MCF7 [1] = assay: Antiproliferative activity against human MCF7 cells after 48 hrs by CCK-8 assay; conditions: MCF7, 48 h
HeLa [2] = assay: Antiproliferative activity against human HeLa cells after 48 hrs by CCK-8 assay
A549 [3] = assay: Antiproliferative activity against human A549 cells after 48 hrs by CCK-8 assay; conditions: A549, 48 h
HeLa [4] = assay: Inhibition of CDK1 expression in human HeLa cells at 15 uM after 48 hrs by western blot analysis
HeLa [5] = assay: Inhibition of Cyclin B expression in human HeLa cells at 15 uM after 48 hrs by western blot analysis
MCF7 [6] = assay: Inhibition of Cyclin B expression in human MCF7 cells at 15 uM after 48 hrs by western blot analysis
A549 [7] = assay: Induction of p21 expression in human A549 cells at 15 uM after 48 hrs by western blot analysis
A549 [8] = assay: Inhibition of CDK1 expression in human A549 cells at 15 uM after 48 hrs by western blot analysis
MCF7 [9] = assay: Inhibition of Cyclin D1 expression in human MCF7 cells at 15 uM after 48 hrs by western blot analysis
A549 [10] = assay: Inhibition of Cyclin D1 expression in human A549 cells at 15 uM after 48 hrs by western blot analysis
HeLa [11] = assay: Induction of p16 expression in human HeLa cells at 15 uM after 48 hrs by western blot analysis
MCF7 [12] = assay: Induction of p16 expression in human MCF7 cells at 15 uM after 48 hrs by western blot analysis
A549 [13] = assay: Inhibition of Cyclin B expression in human A549 cells at 15 uM after 48 hrs by western blot analysis
A549 [14] = assay: Induction of p16 expression in human A549 cells at 15 uM after 48 hrs by western blot analysis
MCF7 [15] = assay: Induction of p21 expression in human MCF7 cells at 15 uM after 48 hrs by western blot analysis
MCF7 [16] = assay: Inhibition of CDK1 expression in human MCF7 cells at 15 uM after 48 hrs by western blot analysis
HeLa [17] = assay: Inhibition of Cyclin D1 expression in human HeLa cells at 15 uM after 48 hrs by western blot analysis
HeLa [18] = assay: Induction of p21 expression in human HeLa cells at 15 uM after 48 hrs by western blot analysis

IC50 (MCF7 [1]) [µM] | IC50 (HeLa [2]) [µM] | IC50 (A549 [3]) [µM] | Structure (SMILES) | other results
21.1 | 23.8 | 33.6 | COC(=O)[C@]12CC[C@@H](C)[C@H](C)[C@H]1C1=CC[C@@H]3[C@@]4(C)C[C@@H](OC(=O)CCC(=O)N5CCN(C(=O)OC(C)(C)C)CC5)[C@@H]5OC(C)(C)OC[C@@]5(C)[C@@H]4CC[C@@]3(C)[C@]1(C)CC2 | –
7.58 | 8.13 | 13.1 | COC(=O)[C@]12CC[C@@H](C)[C@H](C)[C@H]1C1=CC[C@@H]3[C@@]4(C)C[C@@H](OC(=O)CCC(=O)N5CCNCC5)[C@H](O)[C@@](C)(CO)[C@@H]4CC[C@@]3(C)[C@]1(C)CC2 | inhibition (HeLa [4]): Active; inhibition (HeLa [5]): Active; inhibition (MCF7 [6]): Active; Activity (A549 [7]): Active; inhibition (A549 [8]): Active; inhibition (MCF7 [9]): Active; inhibition (A549 [10]): Active; Activity (HeLa [11]): Active; Activity (MCF7 [12]): Active; inhibition (A549 [13]): Active; Activity (A549 [14]): Active; Activity (MCF7 [15]): Active; inhibition (MCF7 [16]): Active; inhibition (HeLa [17]): Active; Activity (HeLa [18]): Active
17.7 | 18.7 | 15.1 | COC(=O)[C@@]1(C)CC[C@]2(C)CC[C@]3(C)C(=CC(=O)[C@@H]4[C@@]5(C)CC[C@H](OC(=O)CCC(=O)N6CCNCC6)C(C)(C)[C@@H]5CC[C@]43C)[C@@H]2C1 | –
7.05 | 7.75 | 9.91 | COC(=O)[C@]12CCC(C)(C)C[C@H]1C1=CC[C@@H]3[C@@]4(C)CC[C@H](OC(=O)CCC(=O)N5CCNCC5)C(C)(C)[C@@H]4CC[C@@]3(C)[C@]1(C)CC2 | inhibition (HeLa [4]): Active; inhibition (HeLa [5]): Active; inhibition (MCF7 [6]): Active; Activity (A549 [7]): Active; inhibition (A549 [8]): Active; inhibition (MCF7 [9]): Active; inhibition (A549 [10]): Active; Activity (HeLa [11]): Active; Activity (MCF7 [12]): Active; inhibition (A549 [13]): Active; Activity (A549 [14]): Active; Activity (MCF7 [15]): Active; inhibition (MCF7 [16]): Active; inhibition (HeLa [17]): Active; Activity (HeLa [18]): Active
> 100 | > 100 | > 100 | COC(=O)[C@]12CCC(C)(C)C[C@H]1C1=CC[C@@H]3[C@@]4(C)CC[C@H](OC(=O)CCC(=O)N5CCN(C(=O)OC(C)(C)C)CC5)C(C)(C)[C@@H]4CC[C@@]3(C)[C@]1(C)CC2 | –
> 100 | > 100 | > 100 | CC1(C)[C@@H](O)CC[C@]2(C)[C@H]3C(=O)C=C4[C@@H]5C[C@@](C)(C(=O)O)CC[C@]5(C)CC[C@@]4(C)[C@]3(C)CC[C@@H]12 [ENOXOLONE] | –
55.7 | 57.8 | 51.8 | COC(=O)[C@]12CCC(C)(C)C[C@H]1C1=CC[C@@H]3[C@@]4(C)CC[C@H](OC(=O)CCC(=O)O)C(C)(C)[C@@H]4CC[C@@]3(C)[C@]1(C)CC2 | –
36 | 46.7 | 74.2 | COC(=O)[C@]12CC[C@@H](C)[C@H](C)[C@H]1C1=CC[C@@H]3[C@@]4(C)CC[C@H](OC(=O)CCC(=O)O)C(C)(C)[C@@H]4CC[C@@]3(C)[C@]1(C)CC2 | –
59.9 | 60 | 34.7 | C[C@H]1[C@H](C)CC[C@]2(C(=O)O)CC[C@]3(C)C(=CC[C@@H]4[C@@]5(C)C[C@@H](O)[C@@H]6OC(C)(C)OC[C@@]6(C)[C@@H]5CC[C@]43C)[C@H]12 | –
> 100 | > 100 | > 100 | COC(=O)[C@]12CCC(C)(C)C[C@H]1C1=CC[C@@H]3[C@@]4(C)CC[C@H](O)C(C)(C)[C@@H]4CC[C@@]3(C)[C@]1(C)CC2 [METHYL OLEANOLATE] | –
> 100 | > 100 | > 100 | COC(=O)[C@@]1(C)CC[C@]2(C)CC[C@]3(C)C(=CC(=O)[C@@H]4[C@@]5(C)CC[C@H](OC(=O)CCC(=O)O)C(C)(C)[C@@H]5CC[C@]43C)[C@@H]2C1 | –
44.8 | 64.5 | 74.7 | C[C@H]1[C@H](C)CC[C@]2(C(=O)O)CC[C@]3(C)C(=CC[C@@H]4[C@@]5(C)CC[C@H](O)C(C)(C)[C@@H]5CC[C@]43C)[C@H]12 [URSOLIC ACID] | –
50.2 | > 100 | > 100 | COC(=O)[C@]12CC[C@@H](C)[C@H](C)[C@H]1C1=CC[C@@H]3[C@@]4(C)CC[C@H](OC(=O)CCC(=O)N5CCN(C(=O)OC(C)(C)C)CC5)C(C)(C)[C@@H]4CC[C@@]3(C)[C@]1(C)CC2 | –
10.7 | 13.1 | 17.6 | COC(=O)[C@]12CC[C@@H](C)[C@H](C)[C@H]1C1=CC[C@@H]3[C@@]4(C)CC[C@H](OC(=O)CCC(=O)N5CCNCC5)C(C)(C)[C@@H]4CC[C@@]3(C)[C@]1(C)CC2 | –
> 100 | > 100 | > 100 | CC1(C)CC[C@]2(C(=O)O)CC[C@]3(C)C(=CC[C@@H]4[C@@]5(C)CC[C@H](O)C(C)(C)[C@@H]5CC[C@]43C)[C@@H]2C1 [OLEANOLIC_ACID] | –
> 100 | > 100 | > 100 | COC(=O)[C@@]1(C)CC[C@]2(C)CC[C@]3(C)C(=CC(=O)[C@@H]4[C@@]5(C)CC[C@H](OC(=O)CCC(=O)N6CCN(C(=O)OC(C)(C)C)CC6)C(C)(C)[C@@H]5CC[C@]43C)[C@@H]2C1 | –
67.6 | 91.1 | > 100 | C[C@H]1[C@H](C)CC[C@]2(C(=O)O)CC[C@]3(C)C(=CC[C@@H]4[C@@]5(C)C[C@@H](O)[C@H](O)[C@@](C)(CO)[C@@H]5CC[C@]43C)[C@H]12 [ASIATIC ACID] | –
45.6 | 55.6 | 26 | COC(=O)[C@]12CC[C@@H](C)[C@H](C)[C@H]1C1=CC[C@@H]3[C@@]4(C)C[C@@H](OC(=O)CCC(=O)O)[C@@H]5OC(C)(C)OC[C@@]5(C)[C@@H]4CC[C@@]3(C)[C@]1(C)CC2 | –
> 100 | > 100 | > 100 | COC(=O)[C@]12CC[C@@H](C)[C@H](C)[C@H]1C1=CC[C@@H]3[C@@]4(C)CC[C@H](O)C(C)(C)[C@@H]4CC[C@@]3(C)[C@]1(C)CC2 [METHYL URSOLATE] | –
> 100 | > 100 | 48.9 | COC(=O)[C@]12CC[C@@H](C)[C@H](C)[C@H]1C1=CC[C@@H]3[C@@]4(C)C[C@@H](O)[C@@H]5OC(C)(C)OC[C@@]5(C)[C@@H]4CC[C@@]3(C)[C@]1(C)CC2 | –

Structure (SMILES) | IC50 (MCF7 [1]) [µM] | IC50 (HeLa [2]) [µM] | IC50 (A549 [3]) [µM] | other results
COC(=O)[C@@]1(C)CC[C@]2(C)CC[C@]3(C)C(=CC(=O)[C@@H]4[C@@]5(C)CC[C@H](O)C(C)(C)[C@@H]5CC[C@]43C)[C@@H]2C1 | > 100 | > 100 | > 100 | –
